Data on 1 compound can be found in patent US20240109836A1, “NON-HALL[…] ANALOGS FOR TREATMENT OF NEUROLOGICAL AND PSYCHIATRIC DISORDERS” (The Trustees of Columbia University in the City of New York, priority 2021, published 2024).

One assay deals with 5-HT2A (Homo sapiens, UniProt P28223). The assay is described as follows: IP1 agonist functional assay. It is filed as cell-based.
A further assay addresses 5-HT2B (Homo sapiens, UniProt P41595). The assay is described as follows: IP1 agonist functional assay. Type of assay: cell-based.
A short description of assay [1]: Head twitch response assay. The note with it: mice, 1, 3, 10, and 30 mg/kg s.c., vs positive control DOI. It is filed as in vivo, Mice (C57bl/6J). As for the experimental part:
FIG. 2. […] N=5 mice in each cohort. […] Drugs were administered s.c.
Mice (C57bl/6J, 8-15 weeks, 26-33 g) were weighed and moved to the testing room 30 minutes prior to experimentation. Mice were administered the experimental compound at a selected dose s.c. and then immediately moved to a new cage. Before beginning the test, mice were allowed to remain in this cage for a set amount of time ranging 0-10 min based on the compound. The head twitch assay was performed by a trained observer watching the mouse for a 10 min duration and recording the total number of head twitches observed.
DOI was tested at the doses of 1, 3, 10 and 30 mg/kg (s.c., 5 mice per dose) and testing began immediately after administration of the compound. Ariadne (32), (29) and (38) were tested at the doses of 1, 3, 10, and 30 mg/kg (s.c., 5 mice per dose) and there was a 10 min interval between treatment and testing.

Chain of 5-HT2A (P28223 whole entry): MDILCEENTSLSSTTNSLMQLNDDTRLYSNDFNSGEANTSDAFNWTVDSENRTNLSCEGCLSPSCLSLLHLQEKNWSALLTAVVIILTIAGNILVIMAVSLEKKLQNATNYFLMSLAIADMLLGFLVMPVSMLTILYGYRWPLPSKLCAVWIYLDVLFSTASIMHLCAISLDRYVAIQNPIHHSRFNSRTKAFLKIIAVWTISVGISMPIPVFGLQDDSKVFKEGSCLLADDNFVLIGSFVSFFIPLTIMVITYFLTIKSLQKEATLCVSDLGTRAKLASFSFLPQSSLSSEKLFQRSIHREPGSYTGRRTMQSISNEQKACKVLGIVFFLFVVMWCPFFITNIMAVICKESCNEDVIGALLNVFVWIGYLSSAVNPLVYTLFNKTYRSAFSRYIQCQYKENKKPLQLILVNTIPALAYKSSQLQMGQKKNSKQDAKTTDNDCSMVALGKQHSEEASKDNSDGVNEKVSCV
Chain of 5-HT2B (P41595 whole entry): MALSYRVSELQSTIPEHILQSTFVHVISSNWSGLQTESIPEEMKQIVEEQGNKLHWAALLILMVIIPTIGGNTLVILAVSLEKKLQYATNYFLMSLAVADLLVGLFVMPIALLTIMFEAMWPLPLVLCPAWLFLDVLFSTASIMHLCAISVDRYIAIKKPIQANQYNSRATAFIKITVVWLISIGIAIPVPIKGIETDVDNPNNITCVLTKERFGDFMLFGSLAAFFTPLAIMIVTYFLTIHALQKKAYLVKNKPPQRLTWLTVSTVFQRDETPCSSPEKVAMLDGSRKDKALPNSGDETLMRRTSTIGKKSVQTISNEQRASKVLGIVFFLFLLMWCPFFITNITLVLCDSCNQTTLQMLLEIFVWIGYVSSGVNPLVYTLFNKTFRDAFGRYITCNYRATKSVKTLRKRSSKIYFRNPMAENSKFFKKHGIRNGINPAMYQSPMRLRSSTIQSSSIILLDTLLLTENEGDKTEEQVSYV

In the case of `CCC(N)Cc1cc(OC)c(C(F)(F)F)cc1OC` (stereo not shown) [compound 29, 1-(2,5-dimethoxy-4-(trifluoromethyl)phenyl) butan-2-amine], the EC50 (as a rule, the concentration giving half of the maximal effect) amounted to 34 nM on 5-HT2A and 5.9 µM at 5-HT2B. Besides, the “Selectivity (EC50 2B ÷ EC50 2A)” value at 5-HT2A (5HT2A versus 5HT2B, relative agonism potencies) is on record as 174x. Moreover, the “psychedelic activity (number of head twitches in a 10-min period)” value in assay [1] is listed as “lower psychedelic activity”.
